From ChEMBL document CHEMBL5233217, “Modification of 7-piperazinylquinolone antibacterials to promising anticancer lead compounds: Synthesis and in vitro studies” (Eur J Med Chem, 2020)

Key:
Format in all cases: functional, cell-based
[1] = system: A549; assay: Anticancer activity against human A549 cells assessed as reduction in cell viability by MTT assay
[2] = system: A2780; assay: Anticancer activity against human cisplatin resistant A2780 cells assessed as reduction in cell viability by MTT assay
[3] = system: SW48; assay: Anticancer activity against human SW48 cells assessed as reduction in cell viability by MTT assay

How did the IC50 [1] turn out when `C[C@H]1COc2c(Nn3c(=O)[nH][nH]c3=O)c(F)cc3c(=O)c(C(=O)O)cn1c23` was run?
Its IC50 is 34.5 µM.

With `C[C@H]1COc2c(Nc3ccc(-n4c(=O)[nH][nH]c4=O)cc3)c(F)cc3c(=O)c(C(=O)O)cn1c23` as the molecule, how does the IC50 [2] read?
The IC50 was at most 43 µM.

What about the IC50 [3] of the same molecule?
The IC50 was at most 43 µM.
